# Results taken from publication PMC11903766, “A structure-based framework for selective inhibitor design and optimization” (Communications Biology, 2025).
# pIC50: −log10 of the molar value. Like-named read-outs stand apart in the source and are kept apart here.
# Experiments:
# [1] = target: T1, PARP1 (Homo sapiens, UniProt P09874); assay: biochemical; design: PARP1 ELISA on histone-coated plates with NAD+, anti-PAR antibody, HRP chemiluminescence
# Method: (§1) S53 Biological Assay Methods PARP1 inhibitory activity assay. The histone coated 384-well plates were prepared by adding 25 µL histone solution to each well and incubating overnight at 4°C. Prepared PBST buffer, blocking buffer, and assay buffer. Washed the histone coated 384-well plate 3 times using PBST buffer solution. It was blocked with 50 µL blocking buffer at room temperature for 1 h. The plate was washed 3 times using PBST buffer. 2000x compounds were prepared in the source plate, and 50nl compound were transferred from the source plate to the 96-well intermediate plate with 19.95ul assay buffer, shaken, and centrifuged at 1000rpm for 1 min. 5 µL DMSO/compound was then transferred to each well. The PARP1 and DNA mixture was incubated for 10 min at 25°C, followed by the addition of 10 µL PARP1 and DNA (except min control), incubated with the compound for 10 min at RT, and 10 μL DNA was added to the minimal control of assay plate. Added 10 µL of 2.5x NAD+ to each well and incubated for 60 min at 25°C. The plate was washed 3 times with PBST buffer and then assayed. Added 20 µL of anti-Poly/Mono-ADP Ribose Rabbit mAb. […] Read chemiluminescence on Envision immediately after adding 25 µL of Femto-ECL Substrate A and Femto-ECL Substrate B (1:1) mix. The IC50 values were calculated by analyzing the concentration-response curves. […]
# [2] = target: T2, PARP2 (Homo sapiens, UniProt Q9UGN5); assay: biochemical; design: PARP2 ELISA on histone-coated plates with biotin-NAD+, streptavidin-HRP chemiluminescence
# Method: (§2) S54 PARP2 inhibitory activity assay. The histone coated 384-well plates were prepared by adding 25 µL histone solution to each well and incubating overnight at 4°C. Prepared PBST buffer, blocking buffer, and assay buffer. Washed the histone coated 384-well plate 3 times using PBST buffer solution. It was blocked with 50 µL blocking buffer at room temperature for 1 h. The plate was washed 3 times using PBST buffer. 2000x compounds were prepared in the source plate, and 50nl compound were transferred from the source plate to the 96-well intermediate plate with 19.95ul assay buffer, shaken, and centrifuged at 1000rpm for 1 min. 5 µL DMSO/compound was then transferred to each well. The PARP2 mixture was incubated for 10 min at 25°C, followed by the addition of 10 µL PARP2 (except min control), incubated with the compound for 10 min at RT, and 10 µL assay buffer was added to the minimal control of assay plate. Added 10 µL of 2.5x Biotin-NAD+ to each well and incubated for 90 min at 25°C. The plate was washed 3 times with PBST buffer and then assayed. Added 25 µL of Stre-HRP. Incubated for 1 h at RT and washed the plate 3 times with PBST buffer. Read chemiluminescence on Envision immediately after adding 25 µL of Femto-ECL Substrate A and Femto-ECL Substrate B (1:1) mix. The IC50 values were calculated by analyzing the concentration-response curves.
# [3] = target: T1, PARP1; assay: biochemical; design: PARP1 ELISA on histone-coated plates, NAD+, anti-PAR antibody with HRP, chemiluminescence
# Method: S53 Biological Assay Methods PARP1 inhibitory activity assay. The histone coated 384-well plates were prepared by adding 25 µL histone solution to each well and incubating overnight at 4°C. Prepared PBST buffer, blocking buffer, and assay buffer. Washed the histone coated 384-well plate 3 times using PBST buffer solution. It was blocked with 50 µL blocking buffer at room temperature for 1 h. The plate was washed 3 times using PBST buffer. 2000x compounds were prepared in the source plate, and 50nl compound were transferred from the source plate to the 96-well intermediate plate with 19.95ul assay buffer, shaken, and centrifuged at 1000rpm for 1 min. 5 µL DMSO/compound was then transferred to each well. The PARP1 and DNA mixture was incubated for 10 min at 25°C, followed by the addition of 10 µL PARP1 and DNA (except min control), incubated with the compound for 10 min at RT, and 10 μL DNA was added to the minimal control of assay plate. Added 10 µL of 2.5x NAD+ to each well and incubated for 60 min at 25°C. The plate was washed 3 times with PBST buffer and then assayed. Added 20 µL of anti-Poly/Mono-ADP Ribose Rabbit mAb. Incubated for 1.5 h at RT and washed the plate 3 times with PBST buffer. Then added, 20 µL of diluted (1:2000 in Blocking buffer) anti-rabbit IgG, HRP-linked Antibody. Incubated for 1 h at RT and washed the plate 3 times using PBST buffer. Read chemiluminescence on Envision immediately after adding 25 µL of Femto-ECL Substrate A and Femto-ECL Substrate B (1:1) mix. The IC50 values were calculated by analyzing the concentration-response curves. Fit the data to obtain inhibition values using equation (1) Equation (1): inh %=( Max-Signal)/ (Max-Min)*100 Fit the data to obtain IC50 values using equation (2) Equation (2): Y=Bottom + (Top-Bottom)/(1+(IC50/X)[…]) Y is %inhibition and X is compound concentration.
# [4] = target: T2, PARP2; design: PARP2 ELISA on histone-coated plates, biotin-NAD+, streptavidin-HRP, chemiluminescence; conditions: inhibitor
# Method: as §2
# [5] = target: T2, PARP2; assay: biochemical; design: PARP2 ELISA on histone-coated plates, biotin-NAD+, streptavidin-HRP, chemiluminescence
# Method: as §2
# [6] = target: T1, PARP1; design: PARP1 ELISA on histone-coated plates, NAD+, anti-PAR antibody with HRP, chemiluminescence; conditions: inhibitor
# Method: as §1
# [7] = target: T1, PARP1; assay: ELISA enzyme inhibition assay; format: biochemical; conditions: read-out: PARP1 Enzyme / IC50 (nM)^b
# [8] = target: T2, PARP2; assay: ELISA enzyme inhibition assay; format: biochemical; conditions: read-out: PARP2 Enzyme / IC50 (nM)^b
# T1 sequence (P09874 2-1014): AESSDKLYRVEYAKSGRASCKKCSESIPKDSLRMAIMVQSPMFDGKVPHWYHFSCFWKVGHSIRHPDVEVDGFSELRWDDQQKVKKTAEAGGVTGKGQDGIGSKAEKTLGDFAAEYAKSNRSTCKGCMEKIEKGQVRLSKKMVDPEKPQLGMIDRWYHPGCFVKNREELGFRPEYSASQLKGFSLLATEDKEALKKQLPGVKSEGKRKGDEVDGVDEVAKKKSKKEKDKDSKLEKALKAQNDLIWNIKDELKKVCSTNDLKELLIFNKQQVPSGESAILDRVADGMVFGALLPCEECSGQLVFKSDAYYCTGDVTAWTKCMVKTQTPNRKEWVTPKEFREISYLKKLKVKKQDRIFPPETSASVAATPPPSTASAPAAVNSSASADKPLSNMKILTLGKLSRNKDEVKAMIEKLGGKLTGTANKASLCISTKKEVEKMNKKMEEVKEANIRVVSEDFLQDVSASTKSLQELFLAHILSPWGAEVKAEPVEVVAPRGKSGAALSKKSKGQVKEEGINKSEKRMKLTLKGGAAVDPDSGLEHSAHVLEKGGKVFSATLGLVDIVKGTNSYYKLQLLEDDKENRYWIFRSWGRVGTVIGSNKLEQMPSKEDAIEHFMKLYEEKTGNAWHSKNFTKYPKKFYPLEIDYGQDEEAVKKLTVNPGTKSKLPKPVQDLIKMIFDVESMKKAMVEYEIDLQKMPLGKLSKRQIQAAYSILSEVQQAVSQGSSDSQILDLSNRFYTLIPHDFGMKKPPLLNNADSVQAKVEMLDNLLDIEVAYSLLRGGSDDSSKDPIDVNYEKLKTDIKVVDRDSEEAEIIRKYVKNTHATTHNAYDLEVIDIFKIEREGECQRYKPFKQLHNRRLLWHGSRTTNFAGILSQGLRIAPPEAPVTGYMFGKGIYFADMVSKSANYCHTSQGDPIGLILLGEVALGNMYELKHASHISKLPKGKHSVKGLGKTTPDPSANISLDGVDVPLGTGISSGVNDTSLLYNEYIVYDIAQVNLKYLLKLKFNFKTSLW
# T2 sequence (Q9UGN5 whole entry): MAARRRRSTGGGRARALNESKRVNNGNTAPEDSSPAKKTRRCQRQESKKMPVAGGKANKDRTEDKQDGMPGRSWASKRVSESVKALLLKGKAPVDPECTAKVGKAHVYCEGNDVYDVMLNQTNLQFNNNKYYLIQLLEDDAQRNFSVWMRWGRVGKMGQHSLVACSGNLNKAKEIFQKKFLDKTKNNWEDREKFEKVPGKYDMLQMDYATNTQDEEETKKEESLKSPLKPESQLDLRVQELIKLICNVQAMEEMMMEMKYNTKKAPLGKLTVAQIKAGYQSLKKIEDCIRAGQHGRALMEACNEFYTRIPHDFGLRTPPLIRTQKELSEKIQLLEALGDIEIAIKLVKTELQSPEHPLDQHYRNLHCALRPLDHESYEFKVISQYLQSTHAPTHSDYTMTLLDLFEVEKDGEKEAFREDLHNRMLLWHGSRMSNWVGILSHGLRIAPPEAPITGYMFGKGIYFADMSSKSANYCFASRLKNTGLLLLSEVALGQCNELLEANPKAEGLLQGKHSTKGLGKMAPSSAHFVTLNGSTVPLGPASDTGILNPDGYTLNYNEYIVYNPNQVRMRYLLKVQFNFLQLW
pIC50 [1],pIC50 [2],inhibition at 0.01 µM [3] [%],inhibition at 10 µM [3] [%],pIC50 [4],inhibition at 0.01 µM [5] [%],pIC50 [6],IC50 [7] [nM],IC50 [8] [nM],Structure (SMILES)
5.47,6.59,–,–,–,–,–,–,–,CNC(=O)c1ccc(N2CCN(Cc3ccnc(-c4c[nH]c(=O)c(C)c4)n3)CC2)cn1 [R1]
–,–,20.7,99,–,-1.6,–,86.5,741,CCn1c(=O)[nH]c2sc(CN3CCN(c4ccc(C(=O)NC)nc4)CC3)c(C)c2c1=O [Y4]
–,–,46,98.8,< 5.00,1.4,–,12.7,–,CNC(=O)c1ccc(N2CCN(Cc3ccc4c(c3)[nH]c3ncccc34)CC2)cn1 [Y5]

# More lines, now with the values behind:
Structure (SMILES),pIC50 [1],pIC50 [2],inhibition at 0.01 µM [3] [%],inhibition at 10 µM [3] [%],pIC50 [4],inhibition at 0.01 µM [5] [%],pIC50 [6],IC50 [7] [nM],IC50 [8] [nM]
CNC(=O)c1ccc(N2CCN(CC#Cc3cccc4cn[nH]c34)CC2)cn1 [Y2],–,–,-0.1,47.4,< 5.00,2.3,5.01,–,–
CCNC(=O)Nc1cc(CN2CCN(c3ccc(C(=O)NC)nc3)CC2)c2ccccc2n1 [Y6],–,–,70.5,99.1,–,87.6,–,6,2.4
O=C(c1ccc(C(F)(F)F)c(=O)[nH]1)N1CCN(c2ccc3cc[nH]c3c2)CC1 [Z5],–,–,7.3,12.7,< 5.00,-0.8,< 5.00,–,–
